We go through one compound from US20200009088A1, “COMPOSITIONS AND METHODS FOR TREATING ANDROGEN-INDEPENDENT CANCER” (The Regents of the University of California, priority 2017, published 2020).

One data set concerns C4-2B MDVR cells. Description: Cell growth assay (cell numbers), C4-2B MDVR. The format is cell-based. To be noted: C4-2B MDVR, 48 hours.
For a further data set, the system named is C4-2B AbiR cells. Description: Cell growth assay (cell numbers), C4-2B AbiR. The format is cell-based. The note with it: 48 hours, FIG. 7C.
The next data set concerns C4-2-V7 cells. Description: Cell growth assay (cell numbers), C4-2-V7. The format is cell-based. To be noted: 48 hours, FIG. 7D.
In another data set the test system is C4-2BMDVR cells. Kind of data set: ELISA cell death (apoptosis) assay. To be noted: compound alone, analogs compared with niclosamide, FIG. 8. The format is cell-based. Here is the method:
To further examine the anti-cancer effects of these compounds, an ELISA cell death assay was performed.
(In general: In an ELISA, binding on a coated surface is turned into a signal by an enzyme label.)

Another data set relates to AR-V3. Description: PSA-luc assay in C4-2B cells, AR-V3. It is filed as cell-based. The note with it: FBS, 1 μM overnight, FIG. 14C. The text has this:
C4-2B cells were cotransfected with pcDNA, with or without AR-V1, AR-V3, AR-V7, AR-V9 or AR-V12, and with PSA-E/P-luciferase plasmids in FBS condition.

For data set [1], the system named is AR variants. Kind of data set: AR variant protein degradation (cycloheximide, MG132, ubiquitin IP) in CWR22Rv1 cells. It is filed as cell-based. To be noted: FIG. 15. Here is the method: (§1) “AR-Variants” represents a combination of all forms of AR.
(§2) To determine if the small molecule modulators affect AR-V7 protein expression via protein degradation, CWR22Rv1 and C4-2B MDVR cells were treated with cycloheximide (CHX) and the half-life of AR-V7 protein was measured.
After 0, 2, 4, and 8 hours, whole cell lysate was collected and subjected to Western blot. The half-life of AR-V7 was then calculated.
Subsequently, the whole cell lysate was collected and subjected to Western blot.
For the data shown in FIG. 15C, CWR22Rv1 cells were treated with Nic, Compound 7, or Compound 31. Subsequently, whole cell lysate was immunoprecipitated with an AR antibody and blotted with ubiquitin and AR antibodies.

Data set [2] deals with AR variants. Kind of data set: AR variant protein degradation (cycloheximide, MG132, ubiquitin IP) in C4-2B MDVR cells. The format is cell-based. To be noted: FIG. 16. Here is the method: as §1, §2
After 0, 2, 4, and 8 hours, whole cell lysate was collected and subjected to Western blot. Half-life of AR-V7 was then calculated.
Whole cell lysate was subsequently collected and subjected to Western blot.
Whole cell lysate was immunoprecipitated with an AR antibody and blot with ubiquitin and AR antibodies.

The nature of another data set: in vivo. To be noted: for Cmax: rat plasma, p.o. 200 mg/kg. Here is the method: Blood samples were obtained at the time points indicated in FIG. 18 (0 minutes, 15 minutes, 30 minutes, 1 hour, 1.5 hours, 2 hours, 4 hours, 6 hours, 8 hours, and 24 hours) and the plasma was isolated for LC-MS analysis.
Another data set deals with CWR22Rv1 cells. Kind of data set: Cell growth assay (cell numbers), CWR22Rv1. It is filed as cell-based.
The mark [3] stands for this setting: male, Sprague-Dawley, rat, in vivo, po, 200 mg/kg.
The mark [4] stands for this setting: male, Sprague-Dawley, rat, plasma, po, 200 mg/kg.

Molecules are shown by their SMILES.

Usually AUC(0-inf) stands for the area under the concentration-time curve extrapolated to infinity. A high value points to high exposure. In general, AUC(0-t) refers to exposure summed from dosing to a finite time, without extrapolation to infinity. Low readings indicate low exposure, high ones high exposure. What is called Tmax is the time at which the peak concentration occurs. A word on the Cmax: it is the peak of the concentration-time curve. Consider `O=C(Nc1ccc([N+](=O)[O-])cc1Cl)c1cc(Cl)ccc1O` [niclosamide, (5-chloro-N-2-chloro-4-nitro-phenyl)-2-hydroxybenzamide, reference compound], for which the “cell proliferation, combination with enzalutamide (MDV)” value in the data set with C4-2B MDVR cells (0.5 μM + enzalutamide, FIG. 7B) is “further inhibited”; in the data set on C4-2B AbiR cells (0.5 μM + enzalutamide), “further inhibited”; with C4-2-V7 cells (C4-2-V7, 0.5 μM + enzalutamide), “further inhibited”; with CWR22Rv1 cells (CWR22Rv1, 0.5 μM + enzalutamide, 48 hours, FIG. 7A), “further inhibited”. For the same compound, the cell growth entry in the data set with C4-2B MDVR cells (0.5 μM, FIG. 7B) was “significantly inhibited”; with C4-2B MDVR cells (increasing doses of niclosamide/analogs, FIG. 6), “able to inhibit cell growth in a dose-dependent manner”; in the data set on C4-2B AbiR cells (0.5 μM), “significantly inhibited”; in the data set on C4-2-V7 cells (C4-2-V7, 0.5 μM) it was “significantly inhibited”; in the data set on CWR22Rv1 cells (CWR22Rv1, 0.5 μM, 48 hours, FIG. 7A), “significantly inhibited”; in the data set on CWR22Rv1 cells (CWR22Rv1, 48 hours, increasing doses of niclosamide/analogs, FIG. 6) it was “able to inhibit cell growth in a dose-dependent manner”. The cell apoptosis entry with C4-2BMDVR cells is on record as “significantly induced”. Also, the “AR-V3-mediated PSA-luc activity” value in the data set on AR-V3 is given as “inhibited”. In addition, the “AR variant degradation via the proteasome-ubiquitination system” value in the data set with AR variants [1] and in the data set on AR variants [2] was “degraded” each time. Also, the “AUC_% Extrap_obs” value in “in vivo” (setting [3]) was 3.67 +/− 3.73%. Moreover, the HL_Lambda_z in the data set “in vivo” (setting [3]) was 328.09 ± 173.05 min. The same compound showed an AUC(0-inf) in “in vivo” (setting [4]) of 28.4 µM·h. The same compound showed an AUC(0-t) in “in vivo” (setting [4]) of 4.14 µM·h. Further, the Tmax in “in vivo” (setting [4]) was 25 min. Further, the Cmax in “in vivo” (male, Sprague-Dawley, rat, plasma, po, 200 mg/kg, Cmax) was found to be 1560 nM; in the data set “in vivo”, 1560 nM.
